Experimental data reported in US10266526B2, “Substituted 1,2,3-triazoles as SMYD inhibitors for treating cancer” (EPIZYME, INC., priority 2014, dated 2019).

target: SMYD3 (Homo sapiens (Human), UniProt Q9H7B4); assay: SMYD3 biochemical assay (SMYD3 enzyme assay on MEKK2 protein substrate, 3H-SAM scintillation proximity assay); details: read-out: SMYD3 Biochem IC50
Procedure, shortened: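 Detection used scintillation proximity beads to capture ³H-methylated GST-MEKK2 after quench with 100 uM final cold SAM. The reaction was started by SAM/MEKK2 addition after a 30 min RT compound–enzyme preincubation. Enzyme was tag-free full-length human SMYD3 from E. coli, in buffer of 25 mM Tris-Cl pH 8.0, 1 mM TCEP, 0.005% BSG, 0.005% Tween 20.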

SMYD3, sequence (Q9H7B4 whole entry): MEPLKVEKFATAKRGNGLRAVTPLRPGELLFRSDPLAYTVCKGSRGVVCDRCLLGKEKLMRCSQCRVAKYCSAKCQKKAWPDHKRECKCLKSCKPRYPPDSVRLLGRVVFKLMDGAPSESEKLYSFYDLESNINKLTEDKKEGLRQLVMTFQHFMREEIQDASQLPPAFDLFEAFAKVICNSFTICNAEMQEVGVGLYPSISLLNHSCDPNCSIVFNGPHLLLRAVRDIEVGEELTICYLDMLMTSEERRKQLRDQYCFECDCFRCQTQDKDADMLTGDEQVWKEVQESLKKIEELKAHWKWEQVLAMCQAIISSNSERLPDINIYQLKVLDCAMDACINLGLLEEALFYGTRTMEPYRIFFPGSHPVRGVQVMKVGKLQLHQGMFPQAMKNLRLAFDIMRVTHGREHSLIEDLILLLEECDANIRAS

Structure (SMILES)	IC50 [µM]
CC(NC(=O)[C@H]1Cc2ccccc2CN1)C1CCN(C(=O)[C@H](C)N)CC1 (stereo partly drawn) [compound 306, (3R)-N-(1-(1-(L-alanyl)piperidin-4-yl)ethyl)-1,2,3,4-tetrahydroisoquinoline-3-carboxamide]	48.1
N[C@H]1CC[C@H](NC(=O)c2cccc3c2OC(F)(F)O3)CC1 [compound 307, N-((1r,4r)-4-aminocyclohexyl)-2,2-difluorobenzo[d][1,3]dioxole-4-carboxamide]	> 100
N[C@H]1CC[C@H](NC(=O)c2ccncc2F)CC1 [compound 308, N-((1r,4r)-4-aminocyclohexyl)-3-fluoroisonicotinamide]	> 100
CC(NC(=O)c1cncs1)C1CCN(C(=O)[C@H](C)N)CC1 (stereo partly drawn) [compound 309, N-(1-(1-(L-alanyl)piperidin-4-yl)ethyl)thiazole-5-carboxamide]	> 100
CC(NC(=O)c1ccc(O)cn1)C1CCN(C(=O)[C@H](C)N)CC1 (stereo partly drawn) [compound 310, N-(1-(1-(L-alanyl)piperidin-4-yl)ethyl)-5-hydroxypicolinamide]	> 100
CC(NC(=O)C1=NNC(=O)CC1)C1CCN(C(=O)[C@H](C)N)CC1 (stereo partly drawn) [compound 311, N-(1-(1-(L-alanyl)piperidin-4-yl)ethyl)-6-oxo-1,4,5,6-tetrahydropyridazine-3-carboxamide]	> 100
CC(NC(=O)c1n[nH]c2ccccc12)C1CCN(C(=O)[C@H](C)N)CC1 (stereo partly drawn) [compound 312, N-(1-(1-(L-alanyl)piperidin-4-yl)ethyl)-1H-indazole-3-carboxamide]	> 100
CC(NC(=O)Cc1cc(F)cc(F)c1)C1CCN(C(=O)[C@H](C)N)CC1 (stereo partly drawn) [compound 313, N-(1-(1-(L-alanyl)piperidin-4-yl)ethyl)-2-(3,5-difluorophenyl)acetamide]	70.7
CC(NC(=O)Cc1cccnc1)C1CCN(C(=O)[C@H](C)N)CC1 (stereo partly drawn) [compound 314, N-(1-(1-(L-alanyl)piperidin-4-yl)ethyl)-2-(pyridin-3-yl)acetamide]	> 100
CC(NC(=O)Cc1cncnc1)C1CCN(C(=O)[C@H](C)N)CC1 (stereo partly drawn) [compound 315, N-(1-(1-(L-alanyl)piperidin-4-yl)ethyl)-2-(pyrimidin-5-yl)acetamide]	> 100
CC(NC(=O)Cn1ccnc1)C1CCN(C(=O)[C@H](C)N)CC1 (stereo partly drawn) [compound 316, N-(1-(1-(L-alanyl)piperidin-4-yl)ethyl)-2-(1H-imidazol-1-yl)acetamide]	> 100
NCCC(=O)N[C@H]1CC[C@H](NC(=O)c2cn3ccsc3n2)CC1 [compound 317, N-((1r,4r)-4-(3-aminopropanamido)cyclohexyl)imidazo[2,1-b]thiazole-6-carboxamide]	> 100
N[C@H]1CC[C@H](NC(=O)c2cn3ccsc3n2)CC1 [compound 318, N-((1r,4r)-4-aminocyclohexyl)imidazo[2,1-b]thiazole-6-carboxamide]	> 100
Cc1ncc(C(=O)N[C@H]2CC[C@H](N)CC2)cn1 [compound 320, N-((1r,4r)-4-aminocyclohexyl)-2-methylpyrimidine-5-carboxamide]	> 100
NCCC(=O)N[C@H]1CC[C@H](NC(=O)c2ccnc(N)c2)CC1 [compound 321, 2-amino-N-((1r,4r)-4-(3-aminopropanamido)cyclohexyl)isonicotinamide]	16.6
Nc1cc(C(=O)N[C@H]2CC[C@H](N)CC2)ccn1 [compound 322, 2-amino-N-((1r,4r)-4-aminocyclohexyl)isonicotinamide]	> 100
CC(NC(=O)c1ccc(S(N)(=O)=O)cc1)C1CCN(C(=O)[C@H](C)N)CC1 (stereo partly drawn) [compound 323, N-(1-(1-(L-alanyl)piperidin-4-yl)ethyl)-4-sulfamoylbenzamide]	> 100
Cc1cc(C)c(C(=O)N[C@H]2CC[C@H](N)CC2)c(=O)[nH]1 [compound 324, N-((1r,4r)-4-aminocyclohexyl)-4,6-dimethyl-2-oxo-1,2-dihydropyridine-3-carboxamide]	> 100
Cn1ncc2ccc(C(=O)N[C@H]3CC[C@H](NC(=O)CCN)CC3)cc21 [compound 325, N-((1r,4r)-4-(3-aminopropanamido)cyclohexyl)-1-methyl-1H-indazole-6-carboxamide]	> 100
COc1ccc2cc(C(=O)N[C@H]3CC[C@H](NC(=O)CCN)CC3)ccc2c1 [compound 326, N-((1r,4r)-4-(3-aminopropanamido)cyclohexyl)-6-methoxy-2-naphthamide]	28
NCCC(=O)N[C@H]1CC[C@H](NC(=O)c2cc(=O)c3ccccc3o2)CC1 [compound 327, N-((1r,4r)-4-(3-aminopropanamido)cyclohexyl)-4-oxo-4H-chromene-2-carboxamide]	> 100
N[C@H]1CC[C@H](NC(=O)c2cc(O)c3ccccc3n2)CC1 [compound 328, N-((1r,4r)-4-aminocyclohexyl)-4-hydroxyquinoline-2-carboxamide]	> 100

Structure (SMILES)	IC50 [µM]
NCCC(=O)N[C@H]1CC[C@H](NC(=O)c2ccc(-n3cnnc3)cc2)CC1 [compound 329, N-((1r,4r)-4-(3-aminopropanamido)cyclohexyl)-4-(4H-1,2,4-triazol-4-yl)benzamide]	> 100
NCCC(=O)N[C@H]1CC[C@H](NC(=O)c2ccc3c(c2)OC(F)(F)O3)CC1 [compound 330, N-((1r,4r)-4-(3-aminopropanamido)cyclohexyl)-2,2-difluorobenzo[d][1,3]dioxole-5-carboxamide]	7.49
NCCC(=O)N[C@H]1CC[C@H](NC(=O)c2ccc3c(c2)no[n+]3[O-])CC1 [compound 331, 5-(((1r,4r)-4-(3-aminopropanamido)cyclohexyl)carbamoyl)benzo[c][1,2,5]oxadiazole 1-oxide]	85.1
NCCC(=O)N[C@H]1CC[C@H](NC(=O)c2ccc3nonc3c2)CC1 [compound 332, N-((1r,4r)-4-(3-aminopropanamido)cyclohexyl)benzo[c][1,2,5]oxadiazole-5-carboxamide]	> 100
N[C@H]1CC[C@H](NC(=O)CCCn2ccnc2)CC1 [compound 333, N-((1r,4r)-4-aminocyclohexyl)-4-(1H-imidazol-1-yl)butanamide]	> 100
COc1ccc2cc(C(C)C(=O)NC(C)C3CCN(C(=O)[C@H](C)N)CC3)ccc2c1 (stereo partly drawn) [compound 334, N-(1-(1-(L-alanyl)piperidin-4-yl)ethyl)-2-(6-methoxynaphthalen-2-yl)propanamide]	34.9
NCCC(=O)N[C@H]1CC[C@H](NC(=O)c2cc3cc(F)ccc3[nH]2)CC1 [compound 335, N-((1r,4r)-4-(3-aminopropanamido)cyclohexyl)-5-fluoro-1H-indole-2-carboxamide]	> 100
N[C@H]1CC[C@H](NC(=O)c2nc3ccccc3[nH]2)CC1 [compound 336, N-((1r,4r)-4-aminocyclohexyl)-1H-benzo[d]imidazole-2-carboxamide]	> 100
Cn1ccnc1C(=O)N[C@H]1CC[C@H](N)CC1 [compound 337, N-((1r,4r)-4-aminocyclohexyl)-1-methyl-1H-imidazole-2-carboxamide]	> 100
CC(NC(=O)C1C[C@@H]2C=C[C@H]1C2)C1CCN(C(=O)[C@H](C)N)CC1 (stereo partly drawn) [compound 338, (1r,4r)-N-(1-(1-(L-alanyl)piperidin-4-yl)ethyl)bicyclo[2.2.1]hept-5-ene-2-carboxamide]	> 100
Cc1ccncc1C(=O)N[C@H]1CC[C@H](N)CC1 [compound 339, N-((1r,4r)-4-aminocyclohexyl)-4-methylnicotinamide]	> 100
Cc1cccc(Cn2nc(C(C)(C)C)cc2C(=O)N[C@H]2CC[C@H](NC(=O)CCN)CC2)c1 [compound 340, N-((1r,4r)-4-(3-aminopropanamido)cyclohexyl)-3-(tert-butyl)-1-(3-methylbenzyl)-1H-pyrazole-5-carboxamide]	> 100
Cc1cccc(Cn2nc(C(C)(C)C)cc2C(=O)N[C@H]2CC[C@H](N)CC2)c1 [compound 341, N-((1r,4r)-4-aminocyclohexyl)-3-(tert-butyl)-1-(3-methylbenzyl)-1H-pyrazole-5-carboxamide]	> 100
Cc1cccc2cc(C(=O)N[C@H]3CC[C@H](NC(=O)CCN)CC3)[nH]c12 [compound 342, N-((1r,4r)-4-(3-aminopropanamido)cyclohexyl)-7-methyl-1H-indole-2-carboxamide]	37.7
Cc1cccc2cc(C(=O)N[C@H]3CC[C@H](N)CC3)[nH]c12 [compound 343, N-((1r,4r)-4-aminocyclohexyl)-7-methyl-1H-indole-2-carboxamide]	68.5
Cc1cncc(C(=O)N[C@H]2CC[C@H](NC(=O)CCN)CC2)c1 [compound 344, N-((1r,4r)-4-(3-aminopropanamido)cyclohexyl)-5-methylnicotinamide]	36.4
Cc1cncc(C(=O)N[C@H]2CC[C@H](N)CC2)c1 [compound 345, N-((1r,4r)-4-aminocyclohexyl)-5-methylnicotinamide]	50.7
Cc1ccc(C(=O)N[C@H]2CC[C@H](N)CC2)cn1 [compound 346, N-((1r,4r)-4-aminocyclohexyl)-6-methylnicotinamide]	> 100
Cc1nscc1C(=O)N[C@H]1CC[C@H](NC(=O)CCN)CC1 [compound 347, N-((1r,4r)-4-(3-aminopropanamido)cyclohexyl)-3-methylisothiazole-4-carboxamide]	> 100
Cc1nscc1C(=O)N[C@H]1CC[C@H](N)CC1 [compound 348, N-((1r,4r)-4-aminocyclohexyl)-3-methylisothiazole-4-carboxamide]	> 100
Cn1ccc(C(=O)N[C@H]2CC[C@H](NC(=O)CCN)CC2)n1 [compound 349, N-((1r,4r)-4-(3-aminopropanamido)cyclohexyl)-1-methyl-1H-pyrazole-3-carboxamide]	> 100
Cn1ccc(C(=O)N[C@H]2CC[C@H](N)CC2)n1 [compound 350, N-((1r,4r)-4-aminocyclohexyl)-1-methyl-1H-pyrazole-3-carboxamide]	> 100
